Measured values from the supplement of paper PMC10627819.

How the values were obtained:
[1] = test system: B. subtilis 168; assay: fitness (endpoint OD595 vs no drug) (fraction); higher = more growth
Summary of the method: (§1)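 Growth medium was TSB, LB Lennox or CY, and plates were kept at 37 °C. Inoculation was at OD595 0.01 in 384-well plates, at 30 µl per well or 55 µl for S. pneumoniae. OD595 was monitored every 30 min for 14 h and background-subtracted using the first reading. Fitness is the optical density on entering stationary phase divided by the robust mean of no-drug controls, with values capped at 1.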

[2] = test system: S. aureus DSM 20231; assay: as above
Summary of the method: as §1

[3] = test system: S. aureus Newman; assay: as above
Summary of the method: as §1

[4] = test system: S. pneumoniae D39V; assay: as above
Summary of the method: as §1

[5] = test system: B. subtilis 168; assay: Bliss interaction score (quartile over a dose matrix) (fitness difference); higher = more antagonism (negative = synergy)
Summary of the method: (§2)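 The Bliss score is observed minus expected fitness, where expected fitness is the product of the single-drug fitness values inferred from the combination data. Fitness is the OD595 at the onset of stationary phase over the plate's robust no-drug mean, capped at 1. Scores are summarised by quartiles over technical, biological and donor/recipient replicates.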

[6] = test system: S. aureus DSM 20231; assay: as above
Summary of the method: as §2

[7] = test system: S. aureus Newman; assay: as above
Summary of the method: as §2

[8] = test system: S. pneumoniae D39V; assay: as above
Summary of the method: as §2
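Wherever Bliss interaction score (quartile over a dose matrix) is given: first quartile when negative (synergy) and third quartile when positive (antagonism).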
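Wherever fitness (endpoint OD595 vs no drug) is given: OD595 on entry to stationary phase over no-drug wells; at most 1.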

COc1c(N2C[C@@H]3CCCN[C@@H]3C2)c(F)cc2c(=O)c(C(=O)O)cn(C3CC3)c12 [Moxifloxacin] + CN(N=O)C(=O)N[C@@H](C=O)[C@@H](O)[C@H](O)[C@H](O)CO [Streptozotocin]
fitness
Conditions | partner 0.15 µg/mL | partner 0.3 µg/mL | partner 0.6 µg/mL | partner 1.2 µg/mL | partner 2.4 µg/mL | partner 4.8 µg/mL
[1], first compound 0.0312 µg/mL | 0.0402 | 0.04 | 0.0108 | – | – | –
[1], first compound 0.0625 µg/mL | 0.0394 | 0.0297 | 0.0273 | – | – | –
[1], first compound 0.125 µg/mL | 0.0412 | 0.0464 | 0.0221 | – | – | –
[2], first compound 0.0075 µg/mL | 0.75 | 0.715 | 0.614 | – | – | –
[2], first compound 0.015 µg/mL | 0.691 | 0.681 | 0.59 | – | – | –
[2], first compound 0.03 µg/mL | 0.611 | 0.632 | 0.533 | – | – | –
[3], first compound 0.0075 µg/mL | 0.69 | 0.635 | 0.392 | – | – | –
[3], first compound 0.015 µg/mL | 0.453 | 0.378 | 0.106 | – | – | –
[3], first compound 0.03 µg/mL | 0.0433 | 0.0331 | 0.0187 | – | – | –
[4], first compound 0.005 µg/mL | – | – | – | 0.94 | 0.951 | 0.943
[4], first compound 0.01 µg/mL | – | – | – | 0.951 | 0.95 | 0.928
[4], first compound 0.02 µg/mL | – | – | – | 0.919 | 0.875 | 0.895

fitness, one replicate
Conditions | partner 0.15 µg/mL | partner 0.3 µg/mL | partner 0.6 µg/mL | partner 1.2 µg/mL | partner 2.4 µg/mL | partner 4.8 µg/mL
[1], first compound 2 µg/mL | 0.0199 | 0.0131 | 0 | – | – | –
[1], first compound 4 µg/mL | 0.0208 | 0.0015 | 0.0018 | – | – | –
[1], first compound 8 µg/mL | 0.0288 | 0.0107 | 0.0248 | – | – | –
[2], first compound 0.06 µg/mL | 0.653 | 0.639 | 0.605 | – | – | –
[2], first compound 0.12 µg/mL | 0.453 | 0.448 | 0.391 | – | – | –
[4], first compound 0.0037 µg/mL | – | – | – | 0.978 | 0.879 | 0.844
[4], first compound 0.0075 µg/mL | – | – | – | 0.92 | 0.922 | 0.811
[4], first compound 0.015 µg/mL | – | – | – | 0.878 | 0.872 | 0.811

Conditions | Bliss interaction score
[5] | -0.0331
[6] | 0.0189
[7] | -0.14
[8] | 0.0634

COc1c(N2C[C@@H]3CCCN[C@@H]3C2)c(F)cc2c(=O)c(C(=O)O)cn(C3CC3)c12 [Moxifloxacin] + CN[C@@H]1[C@H](O)[C@H](NC)[C@H]2O[C@@]3(O)C(=O)C[C@@H](C)O[C@H]3O[C@@H]2[C@H]1O [Spectinomycin]
fitness
Conditions | partner 2 µg/mL | partner 4 µg/mL | partner 8 µg/mL | partner 16 µg/mL
[1], first compound 0.0312 µg/mL | 0.0488 | 0.0437 | 0.0518 | –
[1], first compound 0.0625 µg/mL | 0.0414 | 0.0348 | 0.0153 | –
[1], first compound 0.125 µg/mL | 0.026 | 0.0367 | 0.0296 | –
[1], first compound 2 µg/mL | 0.0229 | 0.0184 | 0.0086 | –
[1], first compound 4 µg/mL | 0.0296 | 0.0084 | 0.0039 | –
[1], first compound 8 µg/mL | 0.0255 | 0.02 | 0.0092 | –
[2], first compound 0.0075 µg/mL | – | 0.822 | 0.848 | 0.731
[2], first compound 0.015 µg/mL | – | 0.725 | 0.734 | 0.743
[2], first compound 0.03 µg/mL | – | 0.654 | 0.74 | 0.694
[3], first compound 0.0075 µg/mL | – | 0.742 | 0.748 | 0.7
[3], first compound 0.015 µg/mL | – | – | – | 0.497
[3], first compound 0.03 µg/mL | – | – | 0.0882 | 0.0514
[4], first compound 0.005 µg/mL | – | 0.923 | 0.936 | 0.82
[4], first compound 0.01 µg/mL | – | 0.944 | 0.93 | 0.836
[4], first compound 0.02 µg/mL | – | 0.896 | 0.843 | 0.796

one replicate
Conditions | fitness
[2], first compound 0.0075 µg/mL, partner 32 µg/mL | 0.666
[2], first compound 0.0075 µg/mL, partner 64 µg/mL | 0.0692
[2], first compound 0.015 µg/mL, partner 32 µg/mL | 0.656
[2], first compound 0.015 µg/mL, partner 64 µg/mL | 0.0534
[2], first compound 0.03 µg/mL, partner 32 µg/mL | 0.625
[2], first compound 0.03 µg/mL, partner 64 µg/mL | 0.0231
[2], first compound 0.06 µg/mL, partner 4 µg/mL | 0.664
[2], first compound 0.06 µg/mL, partner 8 µg/mL | 0.675
[2], first compound 0.06 µg/mL, partner 16 µg/mL | 0.673
[2], first compound 0.12 µg/mL, partner 4 µg/mL | 0.505
[2], first compound 0.12 µg/mL, partner 8 µg/mL | 0.457
[2], first compound 0.12 µg/mL, partner 16 µg/mL | 0.523
[3], first compound 0.0075 µg/mL, partner 32 µg/mL | 0.464
[3], first compound 0.0075 µg/mL, partner 64 µg/mL | 0.0581
[3], first compound 0.015 µg/mL, partner 32 µg/mL | 0.294
[3], first compound 0.015 µg/mL, partner 64 µg/mL | 0.047
[3], first compound 0.03 µg/mL, partner 32 µg/mL | 0.0318
[3], first compound 0.03 µg/mL, partner 64 µg/mL | 0.0289
[4], first compound 0.0037 µg/mL, partner 4 µg/mL | 0.897
[4], first compound 0.0037 µg/mL, partner 8 µg/mL | 0.83
[4], first compound 0.0075 µg/mL, partner 4 µg/mL | 0.912
[4], first compound 0.0075 µg/mL, partner 8 µg/mL | 0.816
[4], first compound 0.015 µg/mL, partner 4 µg/mL | 0.891
[4], first compound 0.015 µg/mL, partner 8 µg/mL | 0.813

Conditions | Bliss interaction score
[5] | -0.0287
[6] | -0.0426
[7] | -0.0569
[8] | 0.0328
